According to publication PMC11306024, “Novel metabolite madeirone and neomarinone extracted from Streptomyces aculeoletus as marine antibiofilm and antifouling agents” (Frontiers in Chemistry, 2024):
Read-outs that look alike come from different tables or passages of the source.

Tests used:
C. marina [1] = experiment: Antibiofilm activity (inhibition of biofilm formation); type: cell-based, Cobetia marina DSM 4741; details: 0.16 µg/mL, 24 h, positive control
Method: (§1) To assess antimicrofouling activity, we selected five marine bacterial species as models: Marinobacter hydrocarbonoclasticus DSM 8798 (ATCC 49840), C. marina DSM 4741, Phaeobacter inhibens DSM 17,395, Pseusooceanicola batsensis DSM 15,984, and Micrococcus luteus DSM 20030 (ATCC 4698) ([Michael et al., 2016]). These strains, sourced from DSMZ (Leibniz Institute DSMZ—German Collection of Microorganisms and Cell Cultures), were cultured in liquid marine broth (Carl Roth GmbH, Karlsruhe, Germany) with agitation at 180 rpm or on agar-supplemented marine broth. Incubation temperatures were set at 28°C for M. hydrocarbonoclasticus and Cobetia marina, 30°C for P. inhibens and P. batsensis, while M. luteus was maintained at 37°C in Brain Heart Infusion broth (BHI, Becton Dickinson, GmbH, Heidelberg, Germany) under similar agitation conditions.
(§2) The antibiofilm potential of compounds (1) and (2) against the five marine bacterial species was investigated in 96-well polystyrene flat-bottom microplates (Nunclon Delta Surface, Thermo Scientific, Roskilde, Denmark), as described previously ([Bauermeister et al., 2019]; [Pereira et al., 2020]). In the initial screening, bacterial overnight cultures were diluted to an OD600 of 0.2 and incubated statically at appropriate temperatures. The cultures were tested at 31.25, 15.60, 7.81, 3.91, 1.95, 0.98 μg/mL concentrations (2-fold serial dilutions) of compounds (1) and (2), solubilized in DMSO, or left untreated. After 24 h (M. hydrocarbonoclasticus, C. marina) or 48 h (P. batsensis, P. inhibens, M. luteus) incubation, OD600 was measured. The planktonic cells and media were discarded, and the wells were washed twice with deionized water. Biofilms were fixed, stained, and quantified by measuring the OD600 after solubilization with acetic acid. Biofilm inhibition percentages were calculated relative to untreated bacterial species, using DMSO as a negative control and CuSO4 (0.16 μg/mL), as a positive control. All assays were performed in triplicate, and the results represent the mean and standard error of the mean (SEM). Statistical analysis was conducted using GraphPad Prism 8.0.2, employing one-way ANOVA followed by Dunnett’s multiple comparisons test against the negative control.

P. inhibens [2] = experiment: Antibacterial activity (growth inhibition, OD600); type: cell-based, Phaeobacter inhibens DSM 17395; details: 0.16 µg/mL, 48 h, positive control
Method: as §1
(§3) The antibacterial efficacy of compounds (1) and (2) was assessed in 96-well polystyrene flat-bottom microplates (Nunclon Delta Surface, Thermo Scientific, Roskilde, Denmark) following established procedures ([Bauermeister et al., 2019]). In the initial screening, bacterial overnight cultures were diluted to an optical density (OD600nm) of 0.2 and incubated statically at appropriate temperatures. The cultures were treated with the following final concentrations per well: 31.25, 15.60, 7.81, 3.91, 1.95, and 0.98 μg/mL (2-fold serial dilutions) of the compounds, solubilized in DMSO, or left untreated. After 24 h (M. hydrocarbonoclasticus, C. marina) or 48 h (P. batsensis, P. inhibens, M. luteus) incubation, optical density at 600 nm (OD600) was measured using a Molecular Devices Spectra Max 190. Growth inhibition percentages were calculated relatively to untreated bacterial species, using DMSO as a negative control. CuSO4 (0.16 μg/mL), a recognized antifouling agent, was used as positive control. All assays were conducted in triplicate, and the results represent the mean and standard error of the mean (SEM). Statistical analysis was carried out using GraphPad Prism 8.0.2 (San Diego, CA, United States), employing one-way ANOVA followed by Dunnett’s multiple comparisons test against the negative control.

M. luteus [3] = experiment: Antibiofilm activity (inhibition of biofilm formation); type: cell-based, Micrococcus luteus DSM 20030; details: 0.16 µg/mL, 48 h, positive control
Method: as §1, §2

C. marina [4] = experiment: Antibacterial activity (growth inhibition, OD600); type: cell-based, Cobetia marina DSM 4741; details: 0.16 µg/mL, 24 h, positive control
Method: as §1, §3

M. hydrocarbonoclasticus [5] = experiment: Antibacterial activity (growth inhibition, OD600); type: cell-based, Marinobacter hydrocarbonoclasticus DSM 8798; details: 0.16 µg/mL, 24 h, positive control
Method: as §1, §3

P. inhibens [6] = experiment: Antibiofilm activity (inhibition of biofilm formation); type: cell-based, Phaeobacter inhibens DSM 17395; details: 0.16 µg/mL, 48 h, positive control
Method: as §1, §2

P. batsensis [7] = experiment: Antibacterial activity (growth inhibition, OD600); type: cell-based, Pseudo-oceanicola batsensis DSM 15984; details: 0.16 µg/mL, 48 h, positive control
Method: as §1, §3

M. hydrocarbonoclasticus [8] = experiment: Antibiofilm activity (inhibition of biofilm formation); type: cell-based, Marinobacter hydrocarbonoclasticus DSM 8798; details: 0.16 µg/mL, 24 h, positive control
Method: as §1, §2

M. luteus [9] = experiment: Antibacterial activity (growth inhibition, OD600); type: cell-based, Micrococcus luteus DSM 20030; details: 0.16 µg/mL, 48 h, positive control
Method: as §1, §3

P. batsensis [10] = experiment: Antibiofilm activity (inhibition of biofilm formation); type: cell-based, Pseudo-oceanicola batsensis DSM 15984; details: 0.16 µg/mL, 48 h, positive control
Method: as §1, §2

Daphnia magna [11] = details: cited from earlier work
Fish Orcorhynchus mykiss = details: ref Tišler and Zagorc-končan, 2003; cited from earlier work
Daphnia magna [12] = details: ref Tišler and Zagorc-končan, 2003; cited from earlier work
[13] = test system: Alga Scenedesmus quadricauda; details: cited from earlier work
Oral rat = details: from reported data; ref Tišler and Zagorc-končan, 2003; cited from earlier work
Oral rat/rabit = test system: Oral rat/rabit; design: method as in Tišler and Zagorc-končan, 2003; details: ref Tišler and Zagorc-končan, 2003; cited from earlier work
Aliivibrio fischeri = experiment: Inhibition of bioluminescence (ISO 11348-3 micro adaptation); type: cell-based; details: 100 µg/mL
Method: The in vivo evaluation of compounds (1) and (2) for acute toxicity was performed towards marine bacterium Aliivibrio fischeri, and planktonic crustacean Daphnia magna. The chronic ecotoxicity tests were evaluated using algae Pseudokirchneriella subcapitata and Phaeodactylum tricornutum.
The inhibition of bioluminescence of the marine bacterium A. fischeri, were studied following a micro adaptation of the standard procedure ISO 11348-3 (“Water Quality-Determination of the inhibitory effect of water samples on the light emission of Vibrio fischeri - Luminescent bacteria test–using freeze-dried bacteria method”). Briefly, frozen lyophilized bacterial cells (Abraxis, Warminster, PA, United States) were reconstituted in Reconstitution Solution, supplied by the manufacturer of the Abratox kit (Abraxis). Madeirone (1) and neomarinone (2) were dissolved in DMSO and tested at the concentrations of 100, 50, 25, 12.5, 6.25, 3.13, and 1.56 μg/mL. The emitted luminescence was measured using a luminometer at time 0 min and at different exposure times (5, 15 and 30 min) and the percentage of inhibition of bioluminescence was determined. Each experiment was performed in duplicate and the results of three independent experiments with <10% SD are presented. Phenol was used as a positive control.

M. edulis = test system: M. edulis; design: method as in Davies et al., 1997; details: against M. edulis; ref Davies et al., 1997; cited from earlier work

In the case of O=S(=O)([O-])[O-].[Cu+2] [CuSO4, reference compound], the “Biofilm inhibition (%) C. marina” value (C. marina [1]) is reported as “no observable inhibition and N.I”, the “Growth inhibition (%) P. inhibens” value (P. inhibens [2]) is reported as 66.2 ± 5.6 % and the “Biofilm inhibition (%) M. luteus” value (M. luteus [3]) is reported as “no observable inhibition and N.I”. The “Growth inhibition (%) C. marina” value (C. marina [4]) was “No inhibition and N.I”, the “Growth inhibition (%) M. hydrocarbonoclasticus” value (M. hydrocarbonoclasticus [5]) was 35.8 ± 0.8 % and the “Biofilm inhibition (%) P. inhibens” value (P. inhibens [6]) was 12.9 ± 6.4%. The “Growth inhibition (%) P. batsensis” value (P. batsensis [7]) was 44.8 ± 6.3 %, the “Biofilm inhibition (%) M. hydrocarbonoclasticus” value (M. hydrocarbonoclasticus [8]) was “no observable inhibition and N.I” and the “Growth inhibition (%) M. luteus” value (M. luteus [9]) was “No inhibition and N.I”. For the same compound, the “Biofilm inhibition (%) P. batsensis” value (P. batsensis [10]) was 41.4 ± 0.9%.
For [As] [compound 9, arsenic], the “Daphnia magna 21 days NOEC” value (Daphnia magna [11]; ref Tišler and Zagorc-končan, 2003) is given as 1.85 mg/L, the “Fish Orcorhynchus mykiss 96 h LC50” value (Fish Orcorhynchus mykiss) is given as 15.3 µg/mL and the “Daphnia magna 48 h LC50” value (Daphnia magna [12]) is given as 2.5 µg/mL. For the same compound, the “Alga Scenedesmus quadricauda 21 days NOEC” value ([13]; footnote d as printed, ref Tišler and Zagorc-končan, 2003) was 34.5 mg/L, the ATE category (Oral rat) was 2 (category 2, 5 < ATE ≤50 mg/kg, also classified as “Fatal if swallowed”) and the “Oral rat/rabit LD50” value (Oral rat/rabit) was 12 mg/kg.
For Oc1ccccc1 [Phenol, reference compound], the “Inhibition (%) A. fischeri (bioluminescence)” value (Aliivibrio fischeri) was 19.8%.
In the case of ivermectin, the EC50 (M. edulis) is listed as 0.4 µg/mL.
In the case of [Cu] [compound 8, copper], the “Daphnia magna 21 days NOEC” value (Daphnia magna [11]; in vivo) is listed as 0.015 mg/L, the “Fish Orcorhynchus mykiss 96 h LC50” value (Fish Orcorhynchus mykiss) is listed as 0.48 µg/mL and the “Daphnia magna 48 h LC50” value (Daphnia magna [12]) is listed as 0.030 µg/mL. The “Alga Scenedesmus quadricauda 21 days NOEC” value [13] was 0.18 mg/L, the ATE category (Oral rat) was 3 (category 3, 50 < ATE ≤300 mg/kg, labeled as (“Toxic if swallowed”)) and the “Oral rat/rabit LD50” value (Oral rat/rabit) was 140 mg/kg.
